Values of other authors in patent publication US20140037713A1, “TRANSDERMAL COMPOSITIONS FOR ANTI-CHOLINERGIC AGENTS” (ANTARES PHARMA IPL, AG, priority 2012, published 2014).

Conditions: Ref. 2

**Q.** Which “Dissociation const. (pKa)” value does the source give for `CCN(CC)CC#CCOC(=O)C(O)(c1ccccc1)C1CCCCC1` (racemic) [Oxybutynin, d,l (racemic) 4-diethylamino-2-butynyl phenylcyclohexylglycolate] here?
**A.** 8.04
